Measured values as given in patent US6476199B1, “Reagents for lysergic acid diethylamide immunoassay” (priority 1996, dated 2002).

Legend:
LSD antibodies = details: prior-art antibodies, Van Vunakis 1971; cited from earlier work
anti-LSD antibody G648 [1] = assay: ELISA microtiter plate assay, plate coated with LSD-BSA label-conjugate 14, antiserum G648; format: binding, goats; details: for G648(OD): conjugate 14 coating, 405 nm, FIG. 1
Method: (§1) The novel reagents were tested in an ELISA immunoassay as described in Example 27. The N-indole derived LSD-BSA label-conjugate 14 containing the biphenyl linker was used to compete against known concentrations of LSD for binding to the anti-LSD antibodies, G648 and G651, raised against the LSD immunogen 8.

anti-LSD antibody G651 [2] = assay: ELISA microtiter plate assay, plate coated with LSD-BSA label-conjugate 14, antiserum G651; format: binding, goats; details: for G651(OD): conjugate 14 coating, 405 nm
Method: as §1
FIG. 2 provides the curve generated from an ELISA microtiter plate assay, as described in Example 27, using nor-LSD as the standard.

anti-LSD antibody G648 [3] = assay: ELISA microtiter plate assay, plate coated with LSD-BSA label-conjugate 21, antiserum G648; details: conjugate 21 coating, 405 nm, FIG. 3
anti-LSD antibody G651 [4] = assay: ELISA microtiter plate assay, plate coated with LSD-BSA label-conjugate 21, antiserum G651; details: conjugate 21 coating, 405 nm, FIG. 3
[5] = light; pH above 7 epimerization at C-8 to iso-LSD; prolonged light oxidation at C-9; cited from earlier work

C[C@@H](CO)NC(=O)[C@@H]1C=C2c3cccc4[nH]cc(c34)C[C@H]2N(C)C1 [ergonovine]
competition for binding to the LSD antibodies (cross-reactivity) (LSD antibodies): compete for binding

CN1C[C@H](C(=O)N[C@]2(C)O[C@@]3(O)[C@@H]4CCCN4C(=O)[C@H](Cc4ccccc4)N3C2=O)C=C2c3cccc4[nH]cc(c34)C[C@H]21 [ergotamine]
competition for binding to the LSD antibodies (cross-reactivity) (LSD antibodies): compete for binding

CCN(CC)C(=O)[C@@H]1C=C2c3cccc4[nH]cc(c34)C[C@H]2NC1 [Nor-LSD, 8β-9,10-didehydro-N,N-diethylergoline-8-carboxamide]
binding of antibody G648 raised against immunogen 8 (anti-LSD antibody G648 [1]; in words): bind
G651(OD) (anti-LSD antibody G651 [2]; 1 ng/mL free drug, FIG. 2): 1.2 OD
G651(OD) (anti-LSD antibody G651 [2]; 5 ng/mL free drug, FIG. 2): 0.88 OD
binding of antibody G651 raised against immunogen 8 (anti-LSD antibody G651 [2]; in words): bind

CC(C)C[C@H]1C(=O)N2CCC[C@H]2[C@]2(O)O[C@@](C)(NC(=O)[C@@H]3C=C4c5cccc6[nH]cc(c56)C[C@H]4N(C)C3)C(=O)N12 [ergosine]
competition for binding to the LSD antibodies (cross-reactivity) (LSD antibodies): compete for binding

CC[C@@H](CO)NC(=O)[C@@H]1C=C2c3cccc4c3c(cn4C)C[C@H]2N(C)C1 [methysergide]
competition for binding to the LSD antibodies (cross-reactivity) (LSD antibodies): compete for binding

CCN(CC)C(=O)[C@@H]1C=C2c3cccc4[nH]cc(c34)C[C@H]2N(C)C1 [LSD, D-lysergic acid diethyl amide]
G648(OD) (anti-LSD antibody G648 [3]; 0.5 ng/mL free LSD): 0.52 OD
G648(OD) (anti-LSD antibody G648 [3]; 1 ng/mL free LSD): 0.37 OD
G648(OD) (anti-LSD antibody G648 [3]; 5 ng/mL free LSD): 0.17 OD
G651(OD) (anti-LSD antibody G651 [4]; 0.5 ng/mL free LSD): 0.5 OD
G651(OD) (anti-LSD antibody G651 [4]; 1 ng/mL free LSD): 0.33 OD
G651(OD) (anti-LSD antibody G651 [4]; 5 ng/mL free LSD): 0.19 OD
G648(OD) (anti-LSD antibody G648 [1]; 0.5 ng/mL free LSD): 0.8 OD
G648(OD) (anti-LSD antibody G648 [1]; 1 ng/mL free LSD): 0.33 OD
G648(OD) (anti-LSD antibody G648 [1]; 5 ng/mL free LSD): 0.25 OD
stability [5]: sensitive to light and alkaline pH
G651(OD) (anti-LSD antibody G651 [2]; 0.5 ng/mL free LSD, FIG. 1): 1.05 OD
G651(OD) (anti-LSD antibody G651 [2]; 1 ng/mL free LSD, FIG. 1): 0.75 OD
G651(OD) (anti-LSD antibody G651 [2]; 5 ng/mL free LSD, FIG. 1): 0.39 OD
G651(OD) (anti-LSD antibody G651 [2]; 5 ng/mL free drug, FIG. 2): 0.63 OD
